Test results: patent publication US4551273A, “Analgesic peptide and process for the preparation thereof” (Eisai Co., Ltd., priority 1983, dated 1985)

Columns and labels:
[1] = administered intraventricularly; cited from earlier work
[2] = peptide purified from pig duodenum; cited from earlier work
kappa-receptor = kappa-receptor (Homo sapiens, UniProt P41145); conditions: subclass of opiate receptor; different from the μ-receptor; cited from earlier work
[3] = test system: writhing syndrome in ddY male mouse; experiment: Acetic acid writhing assay; type: in vivo; conditions: for ED50, Method (A), intravenous / ED50, Method (A), intraventricular: mouse; for ED50, Method (A), intravenous: intravenous (tail vein) administration, acetic acid 10 min after sample; for ED50, Method (A), intraventricular: intraventricular administration, acetic acid 5 min after sample
Method: (§1) The following two methods (A) and (B) were employed to examine the analgesic effects of the sample resulting from intravenous or intraventricular administration.
(§2) The sample and control were injected to the tail vein in the case of intravenous administration and to the side cerebral ventricle in the case of intraventricular administration according to a method reported by Haley and McCormick(1).
(A) Acetic acid writhing assay
0.1 ml/10 g of a 0.7% solution of acetic acid was administered to a ddY male mouse of 20 to 26 g in body weight by an intraabdominal injection to examine the inhibiting effect on writhing syndrome which was mainly observed as a stretching of the hind legs as an indication of the analgesic effect. Acetic acid was administered intraabdominally five min after the intraventricular administration and 10 min after the intravenous administration of the sample. Then the resulting writhing syndromes were counted for 15 min.

[4] = test system: biting response induced by pinching the mouse tail; experiment: Tail pinch assay; type: in vivo; conditions: intraventricular administration
Method: as §1, §2
Response time had been previously determined by a pressure stimulation to select the mice which had responded within 3 sec for the experiment. According to a method reported by Takagi et al.(3), the degree of pain was scored in the following three stages depending on the response time; 0 (shorter than four sec), 1 (four to eight sec), 2 (longer than eight sec). The analgesic effect was calculated by the following equation: [formula]

[5] = test system: guinea pig longitudinal muscle of ileum; experiment: Assay with guinea pig longitudinal muscle of ileum (inhibition of electrically stimulated contraction); type: tissue-based
Method: (A) Assay with guinea pig longitudinal muscle of ileum
This assay was carried out according to the method reported by H. W. Kosterlitz et al. A mature guinea pig was sacrificed by cutting its jugular and subjected to an abdominal operation to take out its ileum as a piece of 40 to 50 cm in length from a region 15 to 20 cm apart from the ileocecal region. Then it was immediately introduced into Ringer's solution and cut into 10 cm portions. The longitudinal muscle was peeled off from each piece by using a scalpel and an applicator, wound with a string and suspended in an isothermal glass cell of 6 ml in volume. Subsequently it was stimulated electrically (0.1 Hz, 0.5 ms, 80-90 V) with platinum electrodes fitted at the upper and lower sides of the cell to record the resulting contractions through a transducer.
H. W. Kosterlitz, A. A. Waterfield: Annu. Rev. Pharmacol., 15, 29 (1975).

mouse vas deferens = experiment: Assay with mouse vas deferens (inhibition of electrically stimulated contraction); parameters: species or system isolated tissue
Method: (B) Assay with mouse vas deferens
This assay was carried out according to the method reported by Hughes et al. A mature male mouse was decapitated and phlebotomized. Then it was immediately subjected to an abdominal operation to take out its right and left vas deferens. Sperm clogged in the ducts was forced out with a pincette in Ringer's solution and both ends of the two ducts were united with a string to form a ring. Then it was stimulated electrically (0.1 Hz, 1 ms, 90 V) in the same manner as described in (A).
Hughes H. W., Kosterlitz H. W., Leslie F. M.: Br. J. Pharmacol., 53, 371 (1975).

Chain of kappa-receptor (P41145 whole entry): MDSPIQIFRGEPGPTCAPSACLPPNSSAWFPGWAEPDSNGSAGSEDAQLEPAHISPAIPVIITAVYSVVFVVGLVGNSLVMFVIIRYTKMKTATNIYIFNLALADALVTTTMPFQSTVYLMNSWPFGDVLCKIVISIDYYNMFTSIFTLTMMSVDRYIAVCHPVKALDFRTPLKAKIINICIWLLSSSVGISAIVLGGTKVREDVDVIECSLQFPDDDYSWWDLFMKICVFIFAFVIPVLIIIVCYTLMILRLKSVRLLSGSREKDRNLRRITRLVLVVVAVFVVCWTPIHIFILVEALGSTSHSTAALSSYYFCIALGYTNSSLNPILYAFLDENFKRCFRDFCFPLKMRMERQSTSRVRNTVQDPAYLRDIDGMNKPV

Molecule | analgesic effect [1] | morphine-like activity relative to morphine [2] | receptor selectivity (kappa-receptor) | analgesic effect compared with morphine on a molar basis ([3]; intravenous administration) | ED50, Method (A), intravenous [3] | ED50, Method (A), intraventricular [3] | ED50, Method (B), intraventricular [4] | IC50 ([5]; concentration required to decrease electrically stimulated contraction to 50%, guinea pig ileum longitudinal muscle, read-out: IC50, Method (A)) | inhibition of contraction, fold as highly as morphine ([5]; guinea pig longitudinal muscle of ileum, relative to morphine) | IC50 (mouse vas deferens; concentration required to decrease electrically stimulated contraction to 50%, read-out: IC50, Method (B)) | inhibition of contraction, fold as highly as morphine (mouse vas deferens; relative to morphine)
Tyr-Gly-Gly-Phe-Leu-Arg-Arg-Ile-Arg-Pro-Lys-Leu-Lys-Trp-Asp-Asp-Gln (YGGFLRRIRPKLKWDDQ; printed: Tyr-Gly-Gly-Phe-Leu-Arg-Arg-Ile-Arg-Pro-Lys-Leu-Lys-Trp-Asp-Asp-Gln) [prototype peptide, opioid peptide from pig duodenum, found earlier by some of the inventors; called prototype peptide in b11] | high analgesic effect | several hundred times as high as morphine | combined selectively with a kappa-receptor |  |  |  |  |  |  |  | 
CC[C@@H](C)[C@@H](NC(=O)[C@H](CCCNC(=N)N)NC(=O)[C@H](CCCNC(=N)N)NC(=O)[C@H](CC(C)C)NC(=O)[C@H](Cc1ccccc1)NC(=O)CNC(=O)CNC(=O)[C@H](Cc1ccc(O)cc1)NC)C(=O)N[C@@H](CCCNC(=N)N)C(=O)N1CCC[C@H]1C(=O)N[C@@H](CCCCN)C(=O)N[C@H](CC(C)C)C(=O)N[C@@H](CCCCN)C(=O)N[C@@H](Cc1c[nH]c2ccccc12)C(N)=O [Compound of the present invention, N-Me-Tyr-Gly-Gly-Phe-Leu-Arg-Arg-D.Ile-Arg-Pro-Lys-D.Leu-Lys-Trp-NH2] |  |  |  | higher than that of morphine | 3.4 nmol/head | 0.017 nmol/head | 0.017 nmol/head | 350 ± 200 pM | approximately 270 fold | 1100 ± 400 pM | approximately 970 fold
CN1CC[C@]23c4c5ccc(O)c4O[C@H]2[C@@H](O)C=C[C@H]3[C@H]1C5 [Morphine, reference compound] |  |  |  |  | 32 nmol/head | 0.63 nmol/head | 0.24 nmol/head |  |  |  | 
